# How the values were obtained:
# [1] = tested on: EGFR phosphorylation (Tyr1068) in H1975 (L858R, T790M) cells; experiment: HTRF cellular EGFR phosphorylation; type: cell-based; settings: Homo sapiens, NCI-H1975; HTRF, mean ± SD of 4 experiments; read-out: H1975 pEGFR IC50
# Protocol: Cells were plated at 20,000 cells per well in 96-well plates and placed at 37 °C with 5% CO2. Compounds were reconstituted in DMSO. Once adhered (after 24 h), cells were treated with compounds at a final concentration of 0.1% DMSO in media. Compounds were added to duplicate wells and incubated 37 °C for 3 h with 5% CO2. For A431 cells 0.5 h before the end of incubation; 100 ng/mL of EGF (Thermo Fisher, Cat. No. PHG0311) was added to all compound-treated cells as well as control. Compound and media were removed from the cells, and then 50 μL of HTRF lysis buffer was added (lysis buffer was diluted from 4× stock to 1× in deionized (DI) water, with 1% blocking agent also added). Cells were lysed on a plate shaker (2000 rpm) for 30 min at room temperature. pEGFR expression was assessed using the Human Phospho-EGFR (Tyr1068) cellular detection kit (Revvity, Cat. No. 64EG1PEH). Total EGFR expression was monitored using the Human Total EGFR cellular detection kit (Revvity, Cat. No. 64NG1PEH) as per the manufacturer’s instructions. […] Results were calculated as the ratio of pEGFR/total EGFR and then the percentage of 0 μM control.
# [2] = tested on: EGFR phosphorylation (Tyr1068) in A431 (WT-EGFR) cells; experiment: HTRF cellular EGFR phosphorylation; type: cell-based; settings: Homo sapiens, A-431, mean ± SD of 4 experiments, read-out: A431 pEGFR IC50
# Protocol: Cells were plated at 20,000 cells per well in 96-well plates and placed at 37 °C with 5% CO2. Compounds were reconstituted in DMSO. Once adhered (after 24 h), cells were treated with compounds at a final concentration of 0.1% DMSO in media. Compounds were added to duplicate wells and incubated 37 °C for 3 h with 5% CO2. For A431 cells 0.5 h before the end of incubation; 100 ng/mL of EGF (Thermo Fisher, Cat. No. PHG0311) was added to all compound-treated cells as well as control. Compound and media were removed from the cells, and then 50 μL of HTRF lysis buffer was added (lysis buffer was diluted from 4× stock to 1× in deionized (DI) water, with 1% blocking agent also added). Cells were lysed on a plate shaker (2000 rpm) for 30 min at room temperature. pEGFR expression was assessed using the Human Phospho-EGFR (Tyr1068) cellular detection kit (Revvity, Cat. No. 64EG1PEH). Total EGFR expression was monitored using the Human Total EGFR cellular detection kit (Revvity, Cat. No. 64NG1PEH) as per the manufacturer’s instructions. Fluorescence emission was read at two different wavelengths (665 and 620 nm) on a PHERAstar microplate reader (BMG Labtech). Results were calculated as the ratio of pEGFR/total EGFR and then the percentage of 0 μM control.
smiles,measurement,setting,value
"C#Cc1cc(=O)n(-c2ccccc2)c2nc(Nc3ccc(N(C)CCN(C)C)cc3)ncc12 [Compound 7, 2-((4-((2-(Dimethylamino)ethyl)(methyl)amino)phenyl)amino)-5-ethynyl-8-phenylpyrido[2,3-d]pyrimidin-7(8H)-one]",IC50,[1],140 ± 21 nM
same,IC50,[2],4100 nM
